The test system of one assay is Rac. Briefly: Rac activation Elisa on spleen infiltrated by leukemic blasts. Particulars: mice, 250 mg/Kg twice a day for 21 days, compared to a vehicle. The class given is in vivo. As for the experimental part: Compound 1 was assayed for its pharmacokinetics and anti-leukemia activities in mice. Specifically, a SEM leukemic cell line was labeled with a vector encoding the mCherry tag and Luciferase. 500,000 labeled cells were injected into immunodeficient mice (NSG mice). After establishment of leukemia (as assessed by bioluminescent imaging), mice were treated with Compound 1 at a dose 250 mg/Kg or a vehicle for 21 days twice a day. During treatment, mice were imaged every other day and BLI recorded and analyzed. 2 hours after the last dose, animals were sacrificed and organs harvested for PK and PD analysis.

The target in the next assay is T1, CDC42 (Homo sapiens, UniProt P60953).
T1 construct: endogenous in cells
Briefly: CDC42 activation pull down assay (Western blot). Particulars: Western Blot (FIG. 10a). The class given is cell-based. As to the method: To determine which of these compounds should be further pursued, a biochemical pull down assay was performed to confirm specific inhibition of Rac activation indicated by disruption of the interaction between Rac and […]. The assay initially required treatment of cells followed by pull down and analysis with Western blot. The cells were first starved in serum free media for 2 hours. They were then re-suspended in serum-containing medium and inhibitors added at desired concentration. Following incubation for the desired length of time, the cells were pelleted and lysed with Magnesium Lysis Buffer (Millipore Mg^2+ lysis/wash buffer). The Rac protein and any bound proteins were then collected with Pak Beads (Millipore Rac/cdc42 Assay Reagent (PAK-1 PBD, agarose). Bound protein was subsequently removed with lysis buffer and subject to Western Blot analysis.
Compound 1 was tested to evaluate its effect on CDC42 activation. In this case, beads for the immunoprecipitation were coated with a CDC42 effector domain. […] The Western Blot and pull down analyses are also shown for DMSO and […].
In general terms: Immunoblotting shows a protein as a band on a membrane.

The test system of a further assay is 40 kinases. Briefly: Kinase screening, whole panel. In kind it is biochemical. Particulars: summary of Table 1. As for the experimental part:
Compound 1 was tested for its efficacy in inhibiting activities of 40 kinases and binding with 12 GPCRs both as an antagonist and an agonist.

For the next assay, the system named is Loucy cells. Briefly: Proliferation assay in Loucy leukemia cells. The class given is cell-based. Particulars: read-out: IC50, inhibition of proliferation. As for the experimental part: Dose Dependent Inhibition of Proliferation The 100 compounds selected from the initial in silico screen were assayed for inhibition of proliferation in two leukemia cell lines, SEM and P12 by Cell Titer Glo. The cells for the proliferation assay were spun down and re-suspended. The cell suspension was then divided and the compound to be tested added in desired concentrations and subsequently plated. Following an incubation period, the Cell Titer Glo reagent (Promega CellTiter 96® Aqueous Non-Radioactive Cell Proliferation Assay) was added and allowed to incubate. The absorbance is subsequently measured at 490 nm using a plate reader. Each compound was analyzed for its effects on cell proliferation.
The lead compound, i.e. Compound 1, was analyzed for its effect on cell proliferation at various doses on three different leukemia cell lines: SEM, P12, and Loucy. In order to quantitate the percentage inhibition of cell proliferation, Cell Titer Glo analysis was completed as described in Example 2 above.
(§1) FIGS. 3a-3c show three graphs illustrating the dose dependent inhibition of proliferation of Compound 1 in SEM, P12, and Loucy cells as measured by MTS assay. […] Compound 1 was further analyzed for its effect on cell apoptosis and cell death using a flow based assay using Annexin V staining.

The subject of the next assay is P12 cell line. Briefly: Annexin V flow assay for apoptosis and cell death, P12. The class given is cell-based. Particulars: Annexin V staining.
Text: as §1

T1 sequence (P60953 whole entry): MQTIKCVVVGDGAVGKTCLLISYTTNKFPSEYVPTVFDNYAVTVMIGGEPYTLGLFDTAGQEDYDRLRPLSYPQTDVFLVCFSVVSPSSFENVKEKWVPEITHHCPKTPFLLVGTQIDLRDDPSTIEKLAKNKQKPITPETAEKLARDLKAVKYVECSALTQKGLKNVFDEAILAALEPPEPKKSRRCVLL

On to `CCc1ccc(CN(C)C(=O)CCc2nnc(CCc3c[nH]c4ccccc34)o2)nc1` (racemic) [Compound 1], for which, in the assay on Rac, the “Rac activation status in spleen” value was “reduced Rac activation”. Further, on CDC42, the “total CDC42 levels” value was “no significant effect”. Besides, on CDC42 (pull down), the CDC42 activation entry is listed as “dose dependent reduction”. Moreover, the “inhibition of the 40 kinases tested” value in the assay on 40 kinases is given as “no significant inhibition”. Also, in the assay with Loucy cells, the IC50 turned out to be 160 µM. Further, the “cell apoptosis and cell death” value in the assay on P12 cell line was “caused cells apoptosis and cell death”.

The values are drawn from patent publication US11427574B2, “Compounds for treating Rac-GTPase mediated disorder” (Children's Medical Center Corporation, priority 2015, dated 2022).
